Reference: article PMC11870023, “A facile assay for zDHHC palmitoyl transferase activation elucidates effects of mutation and modification” (Journal of Lipid Research, 2025)

What was measured:
Test in all cases: auto-S-palmitoylation of HEK293 membranes, SDS-PAGE fluorescence normalised to tag Western blot
[1] = biological target: T1, human zDHHC7 (Homo sapiens, UniProt Q9NXF8); format: cell-based; details: pH 7.4, 37 °C, 2 min; labelled compound; covalent thioester at active-site Cys
T1 construct: full length, His6-Myc tag kept (pCEpuro-His6-Myc-1), HEK293 membrane fraction
T1 sequence (Q9NXF8 1-308): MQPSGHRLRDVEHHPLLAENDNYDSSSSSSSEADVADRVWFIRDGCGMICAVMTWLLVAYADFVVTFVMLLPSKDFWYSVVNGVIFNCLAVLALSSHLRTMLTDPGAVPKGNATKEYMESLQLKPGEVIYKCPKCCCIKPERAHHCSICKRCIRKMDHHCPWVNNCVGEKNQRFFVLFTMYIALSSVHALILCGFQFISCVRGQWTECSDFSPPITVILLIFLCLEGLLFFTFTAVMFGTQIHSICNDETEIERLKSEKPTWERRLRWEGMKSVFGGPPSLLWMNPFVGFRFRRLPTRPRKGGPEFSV
From the text: auto-S-palmitoylation of HEK293 membranes, SDS-PAGE fluorescence normalised to tag Western blot on human zDHHC7 | N44D mutation within the N-terminal cytoplasmic tail of zDHHC7 (Fig. 4A) had no effect

[2] = biological target: T2, human zDHHC14 (Homo sapiens, UniProt Q8IZN3, C181Y); format: biochemical; details: pH 7.4, 37 °C, 2 min; labelled compound; covalent thioester at active-site Cys
T2 construct: full length, His6-Myc tag kept (pCEpuro-His6-Myc-1), HEK293 membrane fraction
T2 sequence (Q8IZN3 1-488 C181Y): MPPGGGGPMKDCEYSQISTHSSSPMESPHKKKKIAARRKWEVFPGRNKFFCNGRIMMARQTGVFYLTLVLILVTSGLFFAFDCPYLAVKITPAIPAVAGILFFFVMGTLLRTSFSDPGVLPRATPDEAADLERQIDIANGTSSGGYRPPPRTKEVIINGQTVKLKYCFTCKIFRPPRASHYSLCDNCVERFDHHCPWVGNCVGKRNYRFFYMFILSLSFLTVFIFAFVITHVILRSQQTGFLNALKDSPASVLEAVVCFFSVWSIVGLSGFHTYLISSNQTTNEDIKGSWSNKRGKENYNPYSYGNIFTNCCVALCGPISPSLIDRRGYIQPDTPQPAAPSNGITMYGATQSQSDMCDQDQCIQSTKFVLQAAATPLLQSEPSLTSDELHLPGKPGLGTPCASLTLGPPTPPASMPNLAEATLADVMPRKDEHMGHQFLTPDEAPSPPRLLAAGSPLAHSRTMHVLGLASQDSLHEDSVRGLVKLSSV

[3] = biological target: T1, human zDHHC7; format: cell-based; details: pH 7.4, 37 °C, 2 min; labelled compound; covalent thioester at active-site Cys; remark: listed apart in the source
[4] = tested on: T3, mouse zDHHC11; format: cell-based; details: pH 7.4, 37 °C; labelled compound; covalent thioester at active-site Cys
T3 construct: full length, HA tag kept (pEF-Bos-HA), HEK293 membrane fraction; the source plasmid set's older numbering used DHHC-11 for Zdhhc23, so the gene is not certain

SMILES: CC(C)(COP(=O)(O)OP(=O)(O)OC[C@H]1O[C@@H](n2cnc3c(N)ncnc32)[C@H](O)[C@@H]1OP(=O)(O)O)[C@@H](O)C(=O)NCCC(=O)NCCSC(=O)CCCCCCCCCCCCCCCNc1ccc([N+](=O)[O-])c2nonc12 [NBD-palmitoyl-CoA, N-[(7-nitro-2-1,3-benzoxadiazol-4-yl)-methyl]amino palmitoyl]
- Km [1]: 2.85 ± 0.72 µM
- auto-S-palmitoylation of HEK293 membranes, SDS-PAGE fluorescence normalised to t [2]: C→Y mutation of Cys181 within the second zinc finger domain (Fig. 4A) eliminated auto-S-palmitoylation
- Km [3]: 3.4 ± 0.57 µM
- Km [4]: 0.89 ± 0.23 µM
